This note sets out measurements from PMC4967898, “Peptides interfering with protein-protein interactions in the ethylene signaling pathway delay tomato fruit ripening” (Scientific Reports, 2016).

In this experiment the target is T1, LeETR1 (Solanum lycopersicum, UniProt Q41342).
T1 construct: made in house; host or cells: E. coli
T1 sequence (Q41342 1-754): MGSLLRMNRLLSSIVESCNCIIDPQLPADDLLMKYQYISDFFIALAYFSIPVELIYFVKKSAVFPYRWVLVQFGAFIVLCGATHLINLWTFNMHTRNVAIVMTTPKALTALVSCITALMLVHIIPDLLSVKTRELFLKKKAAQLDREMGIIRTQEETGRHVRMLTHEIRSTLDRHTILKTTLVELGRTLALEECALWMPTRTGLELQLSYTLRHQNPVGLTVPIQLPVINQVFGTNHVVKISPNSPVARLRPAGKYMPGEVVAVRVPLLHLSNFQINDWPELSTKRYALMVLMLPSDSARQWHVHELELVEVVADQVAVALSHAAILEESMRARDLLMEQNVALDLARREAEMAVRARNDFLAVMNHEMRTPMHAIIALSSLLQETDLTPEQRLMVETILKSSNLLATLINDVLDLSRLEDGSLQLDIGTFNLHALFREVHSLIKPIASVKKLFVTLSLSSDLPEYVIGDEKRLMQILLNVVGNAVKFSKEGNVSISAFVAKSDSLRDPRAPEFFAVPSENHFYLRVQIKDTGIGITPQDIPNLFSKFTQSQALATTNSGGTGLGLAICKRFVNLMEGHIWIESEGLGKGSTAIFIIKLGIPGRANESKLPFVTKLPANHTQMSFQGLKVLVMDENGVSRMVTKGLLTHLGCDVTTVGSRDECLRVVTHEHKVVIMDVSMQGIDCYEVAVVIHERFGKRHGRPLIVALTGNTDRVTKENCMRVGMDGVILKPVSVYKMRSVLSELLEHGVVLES
Description: MST NOP-1 binding to LeETR1. Details: species or system tomato. The conditions noted are these: 50 nM LeETR1 labeled with Alexa Fluor 488-Maleimide, NOP-1 3.8 nM to 31 μM, 50 mM Tris-HCl pH 8.0, 300 mM NaCl, 0.015% (w/v) Fos-Choline-16, 80% MST power, 1:1 stoichiometry, mean +/− standard deviation. From the text:
To substantiate the inhibitory role of NOP-1 in LeEIN2-LeETR1 complex formation, NOP-1 binding to LeETR1 was studied by microscale thermophoresis (MST) as described in the Methods section. […] The Kd for the LeETR1-NOP1 interaction compares to the affinities of the EIN2-ETR1 interaction in Arabidopsis[10][11] and tomato (this work) emphasizing that the NOP-1 peptide can efficiently compete for ETR1 binding and disrupt EIN2-ETR1 complex formation.
Analysis of LeETR1-LeEIN2 complex formation, NOP-1 binding to LeETR1 and determination of the respective dissociation constants Kd was performed by MST[33][34][35]. For protein-protein interaction studies LeETR1 was labeled with Alexa Fluor 488 succinimidyl-ester (Life Technologies) in a buffer containing 50 mM potassium phosphate pH 8.0, 300 mM NaCl and 0.015% (w/v) Fos-Choline-16 according to the manufacturer’s protocol. […]
For quantification of NOP-1 binding to tomato receptor protein, recombinant LeETR1 was labeled with Alexa Fluor 488-Maleimide (Life Technologies) in a buffer containing 50 mM potassium phosphate pH 8.0, 300 mM NaCl, 0.015% (w/v) Fos-Choline-16 following the manufacturer’s protocol. […] Protein-peptide mixtures were transferred into glass capillaries and MST was measured with 80% MST power. […] The dissociation constant Kd was calculated according to a model assuming a 1:1 stoichiometry per binding partner.

As a reminder, the Kd is the concentration at which binding is half-saturated. With `CC(C)C[C@H](NC(=O)[C@H](CCCNC(=N)N)NC(=O)[C@H](CCCNC(=N)N)NC(=O)[C@H](CCCCN)NC(=O)[C@H](Cc1ccc(O)cc1)NC(=O)[C@H](CCCNC(=N)N)NC(=O)[C@H](CCCCN)NC(=O)[C@@H](N)CC(C)C)C(N)=O` [NOP-1, LKRYKRRL-NH2], the Kd is approximately 150 nM.
